Reference: patent US7715901B2, “Sensitized online BOLD-MRI imaging method” (Yeda Research and Development Co. Ltd., priority 2002, dated 2010)

Columns and labels:
normal canine prostate = conditions: dog, in vivo; cited from earlier work
[1] = test system: mouse ear lobe blood vessels; assay: Fluorescent intravital microscopy of PDT-induced hemodynamic changes; assay type: in vivo
Procedure: (iv) Intravital microscopy (IVM). Fluorescent IVM was performed with an upright microscope (Nikon Optiphot 2, Kawasaki, Japan) equipped with a thermoregulated stage (37° C.), a CCD camera (50 fps, Applitech, Tel-Aviv, Israel) and a VCR (JVC model HR-J437MS, Yokohama, Japan) for video recording.
Fluorescent IVM in the nude mouse ear lobe (Proske et al, 2000) was used for analysis of changes in vascular diameter, vascular permeability and blood flow. RBC from a donor mouse were labeled ex vivo with 4-(4-(didecylamino)styryl)-N-methylpyridinium iodide (4-Di-10-ASP, 7.5 μg/ml, Molecular Probes, Eugene, Oreg., USA), as previously described (Neeman et al., 2001). The labeled RBC mixed with TRITC-dextran (256 KDa, 0.5 mg/mouse as blood-pool marker, Sigma, St. Louis, Mo., USA) were i.v. administered to the tumor-bearing mouse (labeled cells comprised 1.17+/−0.08% of host RBC as verified on blood smears) and allowed to circulate for 10 min prior to video recording (mag. ×100, 20 min), starting 5 min prior to Pd-Bpheid/light and ending 5 min after the light was turned-off. Mice were euthanized by CO2 at the end of the experiment.
Fluorescence images of blood vessels were acquired every 2 minutes, before, during and up to 10 minutes after illumination. Two hemodynamic parameters were digitally calculated (Scionimage software, Scion Corp., USA) from these images: (1) Changes in blood vessel diameter (arteriolar and venular), and (2) Extravascular leakage of TRITC-dextran (measured as changes in mean pixel intensity at an 2500 μm^2 extravascular region of interest). Both parameters are presented as % of initial value.
It was reported by us (Zilberstein et al., 2001) and others (Dolmans et al., 2002), that in course of anti-vascular PDT, rapid and intense hemodynamic alterations and stasis are observed in the treated tumor site. In this experiment, fluorescence IVM was used to correlate these hemodynamic changes with the MR signal alterations before, during and after Pd-Bpheid PDT. All IVM experiments were performed on the mouse ear lobe model (Proske et al., 2000), since blood vessels in this area can be easily visualized non-invasively under the microscope. Three hemodynamic parameters were measured: (1) changes in vessel diameter (vasoconstriction), (2) extravascular macromolecular leakage, and (3) red blood cell (RBC) flux. […] Significant changes in vessel diameter or RBC flux were not observed in control animals (FIGS. 3B, D and F). […] Changes in tumor perfusion were assessed before, during and after Pd-Bpheid PDT. Pd-Bpheid administration and immediate illumination of the mouse ear lobe, initiated a rapid decrease in perfusion rate both in arterioles and vennules (open and solid circles, respectively), reaching stasis within 3-4 min (FIG. 3C), while illumination alone had no significant effect (FIG. 3D).

[2] = test system: melanoma, glioma, sarcoma and human prostate xenografts; conditions: cited from earlier work; for Cure rates after anti-vascular PDT: mice and rats
[3] = test system: M2R melanoma tumor blood vessels; assay: Immunohistochemistry of HNE-protein adducts (lipid peroxidation) in tumors after PDT; assay type: in vivo, mouse; conditions: tumors dissected 1 hour after PDT
Description: (iii) Immunohistochemistry (IHC): Histological and immunohistological examinations were used for validation of the results obtained during the PDT experiments conducted by MRI and IVM. Dissected tumors were fixed in paraformaldehyde, and embedded in paraffin. IHC of PDT-induced LPO was based on immunodetection of HNE (4-hydroxynonenal), an aldehydic peroxidation product of polyunsaturated fatty acids that forms covalent adducts with proteins by reductive amination and/or Michael type addition (Uchida et al., 1995). PDT-damaged areas were visualized by IHC with anti-HNE. Thus, tumor sections were re-hydrated, blocked with bovine serum albumin for 4 h at 37° C., and treated with rabbit anti-HNE antiserum specifically recognizing HNE adducts (Calbiochem, La Jolla, Calif., USA, 1:400). HRP-conjugated goat anti-rabbit antibody served as 2nd antibody (Jackson, West Grove, Pa., USA) using 3-amino-9-ethylcarbazole as a chromogenic substrate (AEC, Sigma, St. Louis, Mo., USA).
Tumors were dissected 1 hour after PDT, fixed and prepared for IHC. […] In tumors taken from light controls (FIGS. 2B, 2E) or dark controls (data not shown), HNE staining was negative in blood vessels and was seen only in necrotic tumor core (spontaneous, PDT independent). FIGS. 2A, 2B and 2C are parallel adjacent sections of 2D, 2E and 2F, respectively, stained with hematoxylin-eosin.

human blood [4] = assay: T2* weighted MRI of photosensitized isolated blood (ex vivo); conditions: for Decline in T2* weighted MR signal intensity of blood: untreated blood = 100%
Procedure: (c) Ex-vivo measurements: Freshly collected human blood in sodium citrate was spun down and re-suspended in autologous plasma to 0.6-0.7 hematocrit to minimize red blood cell (RBC) sedimentation during MRI experiments. Blood samples (500 μl) were placed in 6×50 mm glass tubes (Kimble, Div. of Owens, Ill., USA), sealed under N2 and each placed in a 3.5 ml optical plastic cuvette containing 2 ml of PBS. A proton volume coil was used (field of view 7 cm, slice thickness 2 mm, data was zero filled to matrix 512×512). Data were analyzed as the mean signal intensity of the blood sample relative to the surrounding phosphate-buffered saline (PBS).
For the MRI examination, we next determined the effect of PDT on sPO2 in isolated human blood, as manifested in T2* weighted MR signal intensity, under similar conditions. […] Thus, photosensitization of Pd-Bpheid in blood reduces sPO2 as reflected by a significant decrease in signal intensity of […] MR images in the absence of flow and volume changes.

human blood [5] = assay: Spectroscopic sPO2 of photosensitized blood
Procedure: sPO2 of photosensitized blood: Optical spectroscopy. Fresh human blood collected in Na-citrate was steered (37° C.) in a sealed optical cuvette (under N2) without or with Pd-Bpheid (100 μg/ml). Online spectroscopic sPO2 determination was performed with a LESA reflectance spectrometer (Biospec, Moscow, Russia) as described (Neeman et al., 2001). Recording was initiated 2 minutes prior to illumination. Ten illumination cycles (1 min each, 170 mW/cm^2) were performed with spectral measurements (8×5 sec) in the intervening periods when the light was turned-off.
For spectroscopic examination, fresh human blood was subjected to spectral analysis of sPO2 during PDT in vitro. […] Upon illumination, a rapid decline in sPO2 was observed reaching a plateau at ˜25% (≧2 minutes of illumination). In the absence of Pd-Bpheid, illumination had no effect.

M2R melanoma tumor = assay: Online BOLD-contrast MRI during solid tumor PDT; assay type: in vivo, mouse
Procedure: (a) Gradient echo (GE) and multiecho gradient echo (MEGE) MR images were acquired on a horizontal 4.7 T Bruker Biospec spectrometer (Rheinstetten, Germany), as described previously (Gilead et al., 1999). Imaging parameters are as follows: slice thickness 0.8 mm, TR 230 ms, TE 10 ms for GE and TE 10, 21.24 and 32.48 ms for MEGE, flip angel 40°, acquisition (AQ) time 117 sec, matrix 256×256 pixels.
(b) Animal studies: Whole body excitation coil and an RF decoupled 1.5 cm surface coil were used for improving signal/noise ratio (field of view 4 cm, slice thickness 0.8 mm). Mice were anesthetized, catheterized, and restrained by adhesive tape (supine/lateral) to locate the tumor above the center of the MRI surface coil; the laser optic fiber was fixed in place to illuminate the tumor area (FIG. 5A). After four sequential images were acquired, mice were treated i.v. with Pd-Bpheid (5 mg/kg) followed by 10 min illumination, while 11 more images were acquired. Room temperature was maintained at 28° C.
(d) Data analysis: MRI data was analyzed using Matlab (The MathWorks Inc., Natick, Mass., USA), Orisis (Version 4.0.9, Geneva, Switzerland) and Paravision 2.1.1 (Bruker, Rheinstetten, Germany). MR signal intensity was derived from each image, either from the region of interest inside the tumor or in control tissue, and normalized to the first image. Response maps were generated by division of each image by the average of the first 2 pre-PDT images. R2* maps were derived by noise weighted linear regression of log(SI), for each pixel. Only pixels with fit of R^2≧0.36 were analyzed. R2*: MRI relaxivity parameter; R^2: statistical correlation parameter.
Having shown that photosensitization of Pd-Bpheid induces changes in blood oxygen levels, we next attempted to detect such changes during PDT of a solid tumor in vivo, using MRI. BOLD-MR imaging was applied before, during and after PDT of the solid subcutaneous M2R melanoma tumor. Pd-Bpheid administration, followed by instant tumor illumination, induced a profound decrease in the MR signal intensity (25-40%) solely within the illuminated tumor area (FIGS. 5C, 6A and 6E). […] MR signal attenuation developed during the first 6-7 minutes of illumination and remained low throughout the experiment.
The MRI value ΔR2* (relaxivity difference in T2*-weighted acquisitions) is dependent only on changes in blood oxygenation and volume, and is not dependent on blood flow.

M2R melanoma xenografts = assay: Follow up of tumor response after Pd-Bpheid PDT; assay type: in vivo, mouse
Procedure: (i) Animals, tumor model and PDT Male CD1 nude mice (30 g±2 g) were implanted s.c. with M2R melanoma xenografts. PDT of anesthetized mice was performed on tumors (7-9 mm in diameter), as previously described (Zilberstein et al., 2001), with slight changes to allow for manipulation inside the magnet during MRI recording, or to perform PDT on the anesthetized mouse placed on the microscope stage during IVM. Intravenous (i.v.) Pd-Bpheid administration (5 mg/kg in vehicle, provided by Negma-Lerads Laboratoires, Toussus Le-Noble, France) was immediately followed by fiber optic guided tumor illumination (light spot Ø=1 cm^2, 763 nm, 102 J/cm^2) for 10 minutes, using a 1 W diode laser (CeramOptec GmbH, Bonn, Germany). The experiments were performed inside the magnet during the MRI recording (see details below). Room temperature was kept constant (28° C.) throughout the experiments.
PDT was performed in three modes: (i) for tumor therapy, i.v. Pd-Bpheid administration was immediately followed by transcutaneous illumination; (ii) for MR imaging, Pd-Bpheid administration (by remotely activated i.v. catheterization) and transcutaneous illumination were performed inside the magnet (FIG. 5A); and (iii) for IVM, Pd-Bpheid administration and illumination of the semi-transparent mouse ear were conducted on top of the microscope stage.
Controls: Light control: illumination of tumors in mice administered with vehicle alone (without photosensitizer). Dark control, Pd-Bpheid administered to tumor-bearing mice without illumination. Mice were euthanized (CO2) to avoid tumor burden when tumors reached ≧10% of body weight. All experiments were conducted according to institutional animal welfare regulations.
Male CD1 nude mice, s.c. implanted with M2R melanoma xenografts were i.v.-injected with Pd-Bpheid (5 mg/kg) and instantly illuminated for 10 minutes (102 J/cm^2). Hemorrhagic tumor necrosis (10/11 mice within 24-48 h) was accompanied by a strong inflammatory response. Tumors in untreated (4/4) light (4/4 mice) or dark (4/4 mice) controls continued to grow reaching […] of body […] by 9±3 days. […]

For `CC[C@H]1c2cc3[n-]c4c(c3C)C(=O)[C@H](C(=O)OC)c4c3nc(cc4[n-]c(cc(n2)[C@@H]1C)c(C(C)=O)c4C)[C@@H](C)[C@@H]3CCC(=O)O.[Pd+2]` [Pd-Bpheid, Palladium-bacteriopheophorbide], which “Outcome of PDT in canine prostate” value (normal canine prostate) is on record?
Its value is “full necrosis of the tumor without functional urethral damage or damage to other adjacent tissues”.

And the “Reduction in arteriolar diameter” value ([1]; 2-3 minutes after onset of illumination)?
Its value is “about 50%”.

And the “Blood flow (RBC flux)” value ([1]; 2-6 minutes after onset of illumination)?
The value was “sharp decline in blood flow”.

What about the “Time to complete blood stasis after onset of illumination” value ([1]; FIG. 3C) of the same compound?
The value was 6 to 7 min.

And the “Time to stasis (perfusion rate in arterioles and venules)” value ([1]; FIG. 3C, immediate illumination of ear lobe)?
Its value is 3 to 4 min.

What about the “Extravascular TRITC-dextran (256 KDa) leakage, highest level” value ([1]; at end of illumination period, ± S.E.) of the same compound?
The value was 145±8 % of baseline.

What about the “Incidence of metastasis compared with conventional surgery” value ([2]; Schreiber et al., 2002) of the same compound?
The value was “decreased the incidence of metastasis”.

And the “Cure rates after anti-vascular PDT” value [2]?
The value was “high cure rates”.

And the “HNE adduct immunostaining (ROS-induced LPO)” value [3]?
Its value is “massive generation of HNE adducts co-localized with tumor blood vessels”.

What about the “Decline in T2* weighted MR signal intensity of blood” value (human blood [4]; 1 min illumination) of the same compound?
Its value is 38.1%.

What about the “Decline in T2* weighted MR signal intensity of blood” value (human blood [4]; 5 min illumination) of the same compound?
Its value is 74.4%.

What about the “MR signal intensity of dark control blood” value (human blood [4]; Pd-Bpheid without light) of the same compound?
The value was “essentially identical to that of untreated blood”.

What about the “sPO2 plateau upon illumination” value (human blood [5]; Pd-Bpheid 100 μg/ml, 170 mW/cm^2, ≧2 minutes of illumination) of the same compound?
Its value is about 25%.

And the “Decline in sPO2” value (human blood [5]; within the first min of illumination, FIG. 4A)?
The value was about 75%.

And the “Decrease in MR signal intensity in illuminated tumor” value (M2R melanoma tumor; 5 mg/kg i.v., 10 min illumination)?
The value was 25-40%.

What about the “Change in MR signal intensity, dark tumor control” value (M2R melanoma tumor; Pd-Bpheid without illumination, FIG. 6C) of the same compound?
Its value is “No detectable change in signal intensity”.

And the “Time to generation of photosensitized MR BOLD-contrast” value (M2R melanoma tumor; during PDT)?
Its value is at most 2 min.

What about the “Time over which MR signal attenuation developed” value (M2R melanoma tumor; from onset of illumination) of the same compound?
The value was 6 to 7 min.

And the “Hemorrhagic tumor necrosis (responding/treated mice)” value (M2R melanoma xenografts; 5 mg/kg i.v., instant illumination 10 min, 102 J/cm^2, within 24-48 h)?
Its value is 10/11.

What about the “Tumors continued to grow (dark control, Pd-Bpheid without illumination)” value (M2R melanoma xenografts; 5 mg/kg, no light) of the same compound?
The value was 4/4.

What about the “Tumor outcome in visual follow-up” value (M2R melanoma xenografts; one mouse, 5 mg/kg i.v., 763 nm, 102 J/cm^2, day 54 post treatment) of the same compound?
The value was “cure”.

With “bacteriochlorophyll-serine [Bchl-Ser, reference compound]” as the compound, how does the “Cure rates after anti-vascular PDT” value [2] read?
Its value is “high cure rates”.
